Reference: patent US11912668B2, “GCN2 and perk kinase inhibitors and methods of use thereof” (Deciphera Pharmaceuticals, LLC, priority 2020, dated 2024)

Tests used:
[1] = tested on: ATF4 in H929 multiple myeloma cells; test: H929 ATF4 ELISA assay (stimulation of cellular ATF4); format: cell-based; conditions: 4 h, no thapsigargin
Description: H929 multiple myeloma cells (catalog #CRL-9068) were obtained from the American Type Culture Collection (ATTC, Manassas, VA). Briefly, cells were grown in RPMI-1640 medium supplemented with 20% heat-inactivated fetal bovine serum (catalog #A3840002, ThermoFisher Scientific, Waltham, MA), 1% Penicillin/Streptomycin/L-Glutamine (catalog #10378016, ThermoFisher Scientific, Waltham, MA), and 0.05 mM 2-mercaptoethanol (catalog #21985-023, ThermoFisher Scientific, Waltham, MA) at 37° C., 5% CO2, and 95% humidity. Cells were expanded until reaching one million five hundred thousand cells per mL at which time they were subcultured or harvested for assay use. One million five hundred thousand cells per well in 1 mL complete growth medium were dispensed into 12-well plates and incubated overnight. A serial dilution of test compound was added, and cells were incubated at 37° C., 5% CO2, and 95% for four hours. Cells were lysed then ATF4 levels were measured using an ELISA assay (Proteintech, Rosemont, IL). Absorbance is measured at 450 nm and 544 nM using a Synergy2 or equivalent reader (Biotek, Winooski VT). Data were analyzed using PRISM software (Graphpad, San Diego, CA) to calculate fold stimulation of cellular ATF4 relative to vehicle treated control.

[2] = target: PERK kinase (Homo sapiens (Human), UniProt Q9NZJ5); test: Biochemical assay for PERK (coupled pyruvate kinase/lactate dehydrogenase assay); conditions: 1 mM ATP, rate from 2-3 h time frame
Outline: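 Coupled pyruvate kinase/lactate dehydrogenase readout of ATP hydrolysis via NADH oxidation (A340), 10 nM PERK, 0.25 mg/mL myelin basic protein, 1 mM ATP, pH 7.5 Tris/MgCl2 buffer, 1% DMSO. Absorbance followed 6 h at 30° C; rate from the 2-3 h window, normalised to no-compound and known-inhibitor controls, IC50 fitted.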

[3] = tested on: CCRF-CEM leukemia cells; test: CCRF-CEM ASNase cell proliferation assay, phenotypic assay for cellular inhibition of GCN2; format: cell-based; conditions: Homo sapiens; ASNase treated CCRF-CEM cells, 1 mU/mL ASNase, 72 h
Outline: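 Cells were seeded at ten thousand per well in RPMI-1640 with 10% heat-inactivated FBS and treated in triplicate with serially diluted compound plus 1 mU/mL ASNase for 72 h at 37 °C, 5% CO2. Resazurin was then added for 6 h, with fluorescence read at ex 540/em 600 nm to derive IC50 values.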

[4] = tested on: ATF4 in CCRF-CEM leukemia cells (PERK); test: CCRF-CEM TG ATF4 ELISA, phenotypic assay for cellular inhibition of PERK preactivated by thapsigargin; format: cell-based; conditions: Homo sapiens; Thapsigargin (1 μM) stimulated CCRF-CEM cells

PERK kinase, sequence (Q9NZJ5 other isoform, or with tags, fused parts or gaps): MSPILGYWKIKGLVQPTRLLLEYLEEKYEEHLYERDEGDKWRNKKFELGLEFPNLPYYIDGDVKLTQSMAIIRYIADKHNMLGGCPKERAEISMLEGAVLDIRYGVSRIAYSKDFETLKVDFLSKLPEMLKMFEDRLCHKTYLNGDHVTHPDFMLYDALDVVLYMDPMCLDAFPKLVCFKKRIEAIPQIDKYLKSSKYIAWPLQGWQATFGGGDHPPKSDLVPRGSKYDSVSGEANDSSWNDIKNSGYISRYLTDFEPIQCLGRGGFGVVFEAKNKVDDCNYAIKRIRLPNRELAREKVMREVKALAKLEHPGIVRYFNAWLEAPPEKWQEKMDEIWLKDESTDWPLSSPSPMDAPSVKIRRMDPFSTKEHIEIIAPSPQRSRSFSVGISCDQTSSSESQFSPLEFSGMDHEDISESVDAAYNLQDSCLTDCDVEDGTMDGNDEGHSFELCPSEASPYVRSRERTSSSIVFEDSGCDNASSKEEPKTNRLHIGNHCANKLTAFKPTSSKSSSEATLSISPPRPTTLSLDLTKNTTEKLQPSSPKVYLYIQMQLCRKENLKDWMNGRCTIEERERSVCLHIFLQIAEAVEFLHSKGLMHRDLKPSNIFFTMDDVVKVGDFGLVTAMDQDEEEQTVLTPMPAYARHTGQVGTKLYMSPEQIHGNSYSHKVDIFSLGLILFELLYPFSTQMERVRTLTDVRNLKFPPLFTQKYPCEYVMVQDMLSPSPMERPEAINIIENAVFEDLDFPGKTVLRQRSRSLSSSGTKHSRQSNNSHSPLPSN

`CNc1ncc2cc(-c3cccc(NS(=O)(=O)c4cc(Cl)cnc4OC)c3F)c(NC)nc2n1` [Compound 16] was tested, and the “H929 NS ATF4 ELISA (fold stimulation of ATF4 relative to vehicle)” value [1] was “+++ (“+++” refers to an ATF4 stim greater than 10 fold and less than or equal to 20 fold)”, the IC50 [2] was 100 to 500 nM and the IC50 [3] was ≤ 100 nM. It also gave an IC50 [4] of 1000 to 10000 nM.
